A short description of data set [1]: Solubility of p-hydroxyphenylglycine o-toluenesulfonate in water (Table 3). Format: physicochemical.
Data set [2] is described as follows: physchem. As to conditions: 0.5 m benzenesulfonic acid, organic solvent or mixture, aqueous 0.5 M benzenesulfonic acid solution.
Data set [3] is described as follows: Solubility of p-hydroxyphenylglycine p-ethylbenzenesulfonate in aqueous 3 M p-ethylbenzenesulfonic acid (Table 2). As to conditions: aqueous 3 M p-ethylbenzenesulfonic acid solution. The format is physicochemical. From the text: *an aqueous 3 M pethylbenzenesulfonate acid solution
Data set [4] is described as follows: physchem. Format: physicochemical. As to conditions: water. On the procedure:
DL-, D- or L-p-hydroxyphenylglycine sulfosalicylate is prepared in the same manner as described in Example 1.
p-hydroxyphenyl- Specific Solubility (g/100
Melting rotation ml of water)

In brackets after ≈: the same amount, converted by molar mass.

The source of these data is US4309362A, “Process for the optical resolution of DL-p-hydroxy-phenylglycine” (Tanabe Seiyaku Co., Ltd., priority 1976, dated 1982).

For orientation: solubility means the concentration that dissolves in the medium under given conditions.

For `N[C@@H](C(=O)O)c1ccc(O)cc1` [p-hydroxyphenylglycine o-toluenesulfonate, D-enantiomer, D-p-hydroxyphenylglycine o-toluenesulfonate], the solubility is 77 mg/mL (≈ 461 mM) in data set [1] (20° C.), 96 mg/mL (≈ 574 mM) in data set [1] (30° C.) and 122 mg/mL (≈ 730 mM) in data set [1] (40° C.).
On to `NC(C(=O)O)c1ccc(O)cc1.O=S(=O)(O)c1ccccc1` (racemic) [DL-p-hydroxyphenylglycine benzenesulfonate], for which the values for the solubility in “physchem [2]” (20° C.), in “physchem [2]” (30° C.) and in “physchem [2]” (40° C.) were 154 mg/mL, 241 mg/mL and 350 mg/mL, respectively.
Take `NC(C(=O)O)c1ccc(O)cc1` (racemic) [DL-p-hydroxyphenylglycine p-ethylbenzenesulfonate]: the solubility in data set [3] (20° C.) is given as 19.3 g/100 ml of solvent; in data set [3] (30° C.), 33.2 g/100 ml of solvent; in data set [3] (40° C.), 52.1 g/100 ml of solvent.
As to `N[C@H](C(=O)O)c1ccc(O)cc1` [p-hydroxyphenylglycine sulfosalicylate monohydrate, L-enantiomer, L-p-hydroxyphenylglycine sulfosalicylate], the solubility in “physchem [4]” is 14.0 g/100 ml of water; in “physchem [4]” (Solubility) it was 100 mg/mL.
For `NC(C(=O)O)c1ccc(O)cc1` (racemic) [DL-p-hydroxyphenylglycine sulfosalicylate], in that order: 26.3 g/100 ml of water and 182 mg/mL (≈ 1090 mM).
As for `N[C@H](C(=O)O)c1ccc(O)cc1` [p-hydroxyphenylglycine p-ethylbenzenesulfonate, L-enantiomer, L-p-hydroxyphenylglycine p-ethylbenzenesulfonate], the solubility in data set [3] (20° C.) is on record as 10.3 g/100 ml of solvent; in data set [3] (30° C.) it was 14.2 g/100 ml of solvent; in data set [3] (40° C.), 21.8 g/100 ml of solvent.
Regarding `NC(C(=O)O)c1ccc(O)cc1` (racemic) [DL-p-hydroxyphenylglycine o-toluenesulfonate], the figures for the solubility in data set [1] (20° C.), in data set [1] (30° C.) and in data set [1] (40° C.) were 123 mg/mL (≈ 736 mM), 160 mg/mL (≈ 957 mM) and 210 mg/mL (≈ 1260 mM), respectively.
In the case of `N[C@H](C(=O)O)c1ccc(O)cc1.O=S(=O)(O)c1ccccc1` [p-hydroxyphenylglycine benzenesulfonate, L-enantiomer, L-p-hydroxyphenylglycine benzenesulfonate], the solubility in the data set “physchem [2]” (20° C.) turned out to be 77 mg/mL; in “physchem [2]” (30° C.) it was 110 mg/mL; in the data set “physchem [2]” (40° C.), 167 mg/mL.
`N[C@@H](C(=O)O)c1ccc(O)cc1` (single isomer, unassigned; enantiomer d) [p-hydroxyphenylglycine sulfosalicylate monohydrate, D-enantiomer, D-p-hydroxyphenylglycine sulfosalicylate]: the results for the solubility in “physchem [4]” and in the data set “physchem [4]” (Solubility) were 14.0 g/100 ml of water and 100 mg/mL, respectively.
In the case of `N[C@@H](C(=O)O)c1ccc(O)cc1` (single isomer, unassigned; enantiomer d) [p-hydroxyphenylglycine p-ethylbenzenesulfonate, D-enantiomer, D-p-hydroxyphenylglycine p-ethylbenzenesulfonate], the solubility is on record as 10.3 g/100 ml of solvent in data set [3] (20° C.), 14.2 g/100 ml of solvent in data set [3] (30° C.) and 21.8 g/100 ml of solvent in data set [3] (40° C.).
For the compound `N[C@@H](C(=O)O)c1ccc(O)cc1.O=S(=O)(O)c1ccccc1` [p-hydroxyphenylglycine benzenesulfonate, D-enantiomer, D-p-hydroxyphenylglycine benzenesulfonate], the solubility worked out at 77 mg/mL in “physchem [2]” (20° C.), 110 mg/mL in “physchem [2]” (30° C.) and 167 mg/mL in “physchem [2]” (40° C.).
For `N[C@H](C(=O)O)c1ccc(O)cc1` [p-hydroxyphenylglycine o-toluenesulfonate, L-enantiomer, L-p-hydroxyphenylglycine o-toluenesulfonate], the results for the solubility in data set [1] (20° C.), in data set [1] (30° C.) and in data set [1] (40° C.) were 77 mg/mL (≈ 461 mM), 96 mg/mL (≈ 574 mM) and 122 mg/mL (≈ 730 mM), respectively.
